The values that follow come from paper PMC4331650 (Biochimica et Biophysica Acta, 2014).

Molecules are shown by their SMILES. Where two headings read alike, the source gives them in different places.

For assay [1], the target named is T1, WT CLC-Ka (Homo sapiens, UniProt P51800).
T1 sequence (P51800 1-687): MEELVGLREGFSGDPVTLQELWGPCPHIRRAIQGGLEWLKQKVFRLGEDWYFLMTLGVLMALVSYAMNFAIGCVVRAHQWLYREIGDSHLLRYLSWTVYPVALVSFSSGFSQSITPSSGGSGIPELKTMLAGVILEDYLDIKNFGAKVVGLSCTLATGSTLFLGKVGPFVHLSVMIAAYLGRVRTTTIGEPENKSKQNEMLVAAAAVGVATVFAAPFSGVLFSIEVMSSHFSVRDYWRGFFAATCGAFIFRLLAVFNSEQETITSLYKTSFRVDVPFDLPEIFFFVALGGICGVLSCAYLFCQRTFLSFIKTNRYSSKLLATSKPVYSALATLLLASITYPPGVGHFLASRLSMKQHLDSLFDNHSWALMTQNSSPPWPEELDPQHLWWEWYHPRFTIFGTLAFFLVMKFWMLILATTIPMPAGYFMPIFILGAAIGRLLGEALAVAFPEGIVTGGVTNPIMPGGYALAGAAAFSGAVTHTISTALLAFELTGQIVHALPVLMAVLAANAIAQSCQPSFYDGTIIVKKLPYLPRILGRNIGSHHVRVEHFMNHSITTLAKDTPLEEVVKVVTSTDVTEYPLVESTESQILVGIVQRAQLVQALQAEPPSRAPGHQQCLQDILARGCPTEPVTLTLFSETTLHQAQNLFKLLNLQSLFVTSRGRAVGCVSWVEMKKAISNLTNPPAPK
T1 sequence (Q8WZ55 1-320 Y98A partner): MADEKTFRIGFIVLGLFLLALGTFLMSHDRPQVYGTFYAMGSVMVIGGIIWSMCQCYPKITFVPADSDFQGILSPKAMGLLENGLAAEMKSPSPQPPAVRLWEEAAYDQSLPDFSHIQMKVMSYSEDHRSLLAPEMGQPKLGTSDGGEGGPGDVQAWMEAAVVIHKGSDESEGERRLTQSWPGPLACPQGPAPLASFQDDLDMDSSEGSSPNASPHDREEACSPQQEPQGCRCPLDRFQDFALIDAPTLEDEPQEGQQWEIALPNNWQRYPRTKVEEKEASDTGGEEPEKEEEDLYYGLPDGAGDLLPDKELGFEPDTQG
As to conditions: Xenopus oocytes, cited from earlier work.

The target of assay [2] is T2, N257A CLC-K1 (Rattus norvegicus, UniProt Q06393, N257A).
T2 sequence (Q06393 1-687 N257A): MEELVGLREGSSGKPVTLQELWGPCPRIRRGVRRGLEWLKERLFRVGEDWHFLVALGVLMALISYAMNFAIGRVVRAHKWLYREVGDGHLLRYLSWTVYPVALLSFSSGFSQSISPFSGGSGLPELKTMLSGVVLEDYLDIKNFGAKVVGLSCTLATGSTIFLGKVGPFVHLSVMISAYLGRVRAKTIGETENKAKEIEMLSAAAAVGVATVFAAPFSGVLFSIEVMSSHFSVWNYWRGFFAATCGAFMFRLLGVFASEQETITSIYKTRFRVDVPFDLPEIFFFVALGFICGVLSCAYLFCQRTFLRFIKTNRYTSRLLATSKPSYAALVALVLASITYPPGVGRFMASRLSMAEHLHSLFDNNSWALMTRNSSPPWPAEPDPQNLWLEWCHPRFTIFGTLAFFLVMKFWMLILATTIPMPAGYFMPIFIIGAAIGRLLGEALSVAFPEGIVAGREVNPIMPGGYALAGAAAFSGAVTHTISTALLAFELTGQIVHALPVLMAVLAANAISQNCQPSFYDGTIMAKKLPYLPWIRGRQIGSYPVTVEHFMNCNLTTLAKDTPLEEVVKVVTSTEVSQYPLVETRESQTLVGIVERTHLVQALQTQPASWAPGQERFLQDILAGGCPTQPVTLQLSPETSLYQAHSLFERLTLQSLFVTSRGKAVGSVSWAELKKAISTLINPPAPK
Put plainly: NFA effect on N257A CLC-K1 without barttin, voltage clamp in Xenopus oocytes. The assay is classed as cell-based. The settings on record: 200 μM NFA.

As to `O=C(O)c1cccnc1Nc1cccc(C(F)(F)F)c1` [NFA, niflumic acid], the “effect on CLC-Ka currents” value in assay [1] ([NFA]ext higher than 0.5 mM) was “block”; in assay [1] ([NFA]ext ≤ 0.5 mM), “increases”. For the same compound, in assay [2], the “sensitivity to NFA compared with WT” value is given as “only weakly more sensitive”.
